Results from patent US7860552B2, “CNS assay for prediction of therapeutic efficacy for neuropathic pain and other functional illnesses” (The McLean Hospital Corporation, priority 2004, dated 2010).

Tests used:
neuropathic pain = conditions: known efficacy in human neuropathic pain; cited from earlier work
healthy subjects = assay: fMRI of CNS activation in healthy subjects after a thermal stimulus (>44° C.); format: in vivo, human; conditions: compared with the placebo response, FIG. 2
Method: The methods of the invention generally involve the administration of a therapeutic intervention, e.g., a compound, to a subject, e.g., a mammal such as a human, non-human primate, or a rodent (e.g., a rat or mouse). In one embodiment, an acute painful stimulus, e.g., a thermal stimulus, is then administered to the subject. An appropriate time delay may be used in order to achieve appropriate therapeutic effect in the blood and/or CNS prior to administration of the stimulus. Levels of activation of the central nervous system (CNS) of the subject are then measured, typically by a neuroimaging technique such as fMRI. When a therapeutic intervention is being evaluated for efficacy against the functional illness, the levels of activity are examined to determine whether the intervention alters activity in the CNS (FIG. 1). The levels of activity may be determined with reference to one or more specific regions of the CNS, such as those associated, either directly or indirectly with the functional illness, or a general level of activity for the entire CNS, or portion thereof, may be determined without reference to specific anatomical or functional regions. Any alteration in the level of activity may be determined relative to a control, such as levels of activity in a subject treated with placebo or a therapeutic intervention with known efficacy against the functional illness. The method is advantageous in that the subject need not be suffering from the functional illness in order to determine the efficacy of a therapeutic intervention for the illness. […]
The present invention typically employs an imaging technique for measuring the level of activation of the CNS, e.g., by determining blood flow in the CNS. […] In addition, the imaging methods may also be employed to determine a general level of activation for the CNS, e.g., measured as the total number of activated voxels., without regard to the specific regions involved. […]

rats = assay: fMRI of CNS activation in rats following heat stimulus; format: in vivo, rat; conditions: compared to placebo group, FIG. 6, FIG. 7
Method: The methods of the invention may employ non-human mammals, e.g., rats, as the subjects, in which experimental therapeutic interventions are evaluated. […] The left panels show serial coronal slices through the brain. The overall level of activation was decreased in the gabapentin group compared to the placebo group. The right panels show differences in activation in specific circuitry known to be involved in pain processing that was affected in somatosensory regions (SI), emotional regions (nucleus accumbens—NAc), autonomic regions (hypothalamus), and endogenous analgesic regions (periaqueductal gray).

Compound	Efficacy in neuropathic pain (neuropathic pain)	fMRI signal change (CNS activation) following the heat stimulus (healthy subjects)	Overall level of CNS activation (fMRI) (rats)
O=C1CN=C(c2ccccc2Cl)c2cc([N+](=O)[O-])ccc2N1 [clonazepam]	no efficacy		
NCC1(CC(=O)O)CCCCC1 [gabapentin]	efficacy	decreasing signal change	decreased
CN(C)CCCN1c2ccccc2CCc2ccccc21 [imipramine]	efficacy	decreasing signal change	
O=C(c1ccccc1)c1ccc2n1CCC2C(=O)O (stereo not shown) [ketorolac]	no efficacy		
CS(=O)(=O)c1ccc(C2=C(c3ccccc3)C(=O)OC2)cc1 [rofecoxib]	no efficacy		
CC1(C)O[C@@H]2[C@@H](CO[C@@]3(COS(N)(=O)=O)OC(C)(C)O[C@@H]23)O1 [topiramate]	efficacy	decreasing signal change	
